Results from ChEMBL document CHEMBL1148691, “Inhibitors of hepatitis C virus NS3.4A protease. Effect of P4 capping groups on inhibitory potency and pharmacokinetics” (Bioorg Med Chem Lett, 2007).

Assays:
[1] = Cytotoxicity against Huh7 cells by MTS assay; format: cell-based, Huh-7; conditions: human
[2] = Ratio of drug level in CD1 mouse liver to IC50 for HCV; format: functional, tissue-based
[3] = Selectivity index, ratio of CC50 for Huh7cells to IC50 for HCV; format: functional
Mus musculus [4] = test: AUC(0 to 8 hrs) in CD1 mouse plasma at 50 mg/kg, po; format: ADME, organism-based; parameters: dose 50 mg/kg, route oral; conditions: in vivo, 6 h
Mus musculus [5] = test: AUC(0 to 8 hrs) in CD1 mouse liver at 50 mg/kg, po; format: ADME, organism-based; parameters: dose 50 mg/kg, route oral; conditions: in vivo, 6 h
Hepatitis C virus = test: Inhibition of HCV replicon RNA production in HUh7 cells; format: functional, organism-based, Hepacivirus hominis; conditions: Huh-7
[6] = Inhibition of HCV NS3 4A protease; parameters: species or system Hepacivirus hominis
Liver = test: Drug level in CD1 mouse liver at 50 mg/kg, po; format: ADME, organism-based; parameters: dose 50 mg/kg, route oral; conditions: in vivo, read-out: Activity
Plasma = test: Drug level in CD1 mouse plasma at 50 mg/kg, po; format: ADME, organism-based; parameters: dose 50 mg/kg, route oral; conditions: in vivo

| SMILES | CC50 [1] | Ratio [2] | Selectivity index [3] | AUC (Mus musculus [4]) | AUC (Mus musculus [5]) | IC50 (Hepatitis C virus) | Ki [6] | concentration (Liver) | concentration (Plasma) |
| --- | --- | --- | --- | --- | --- | --- | --- | --- | --- |
| CCC[C@H](NC(=O)[C@@H]1C[C@@H]2CCCC[C@@H]2N1C(=O)[C@@H](NC(=O)[C@@H](NC(=O)c1cnccn1)C1CCCCC1)C(C)(C)C)C(=O)C(=O)NC1CC1 | 47000 nM | 0.33 | 43 | 1.5 µM·h | 2.9 µM·h | 1100 nM | 150 nM | 360 nM | 180 nM |
| CCC[C@H](NC(=O)[C@@H]1C[C@@H]2CCCC[C@@H]2N1C(=O)[C@@H](NC(=O)[C@@H](NC(=O)c1cnc2ccccc2n1)C1CCCCC1)C(C)(C)C)C(=O)C(=O)NC1CC1 | > 100000 nM |  | > 81 |  |  | 1200 nM | 440 nM |  |  |
| CCC[C@H](NC(=O)[C@@H]1C[C@@H]2CCCC[C@@H]2N1C(=O)[C@@H](NC(=O)[C@@H](NC(=O)c1cccnc1)C1CCCCC1)C(C)(C)C)C(=O)C(=O)NC1CC1 | > 100000 nM |  | > 58 |  |  | 1700 nM | 240 nM |  |  |
| CCC[C@H](NC(=O)[C@@H]1C[C@@H]2CCCC[C@@H]2N1C(=O)[C@@H](NC(=O)[C@@H](NC(=O)c1cc([N+](=O)[O-])c[nH]1)C1CCCCC1)C(C)(C)C)C(=O)C(=O)NC1CC1 | > 100000 nM | 0.03 | > 270 |  | 0.06 µM·h | 370 nM | 50 nM | 10 nM |  |
| CCC[C@H](NC(=O)[C@@H]1C[C@@H]2CCCC[C@@H]2N1C(=O)[C@@H](NC(=O)[C@@H](NC(=O)c1ccccn1)C1CCCCC1)C(C)(C)C)C(=O)C(=O)NC1CC1 | > 100000 nM |  | > 52 |  |  | 1900 nM | 520 nM |  |  |
| CCC[C@H](NC(=O)[C@@H]1C[C@@H]2CCCC[C@@H]2N1C(=O)[C@@H](NC(=O)[C@@H](NC(=O)[C@@H]1Cc2ccccc2N1)C1CCCCC1)C(C)(C)C)C(=O)C(=O)NC1CC1 | > 100000 nM |  | > 90 |  |  | 1100 nM | 320 nM |  |  |
| CCC[C@H](NC(=O)[C@@H]1C[C@@H]2CCCC[C@@H]2N1C(=O)[C@@H](NC(=O)[C@@H](NC(=O)C1(O)CCCC1)C1CCCCC1)C(C)(C)C)C(=O)C(=O)NC1CC1 | > 100000 nM |  | > 64 |  |  | 1600 nM | 640 nM |  |  |
| CCC[C@H](NC(=O)[C@@H]1C[C@@H]2CCCC[C@@H]2N1C(=O)[C@@H](NC(=O)[C@@H](NC(=O)c1ccc[nH]1)C1CCCCC1)C(C)(C)C)C(=O)C(=O)NC1CC1 | > 100000 nM | 0.34 | > 201 | 0.36 µM·h | 1.3 µM·h | 500 nM | 90 nM | 170 nM | 40 nM |
| CCC[C@H](NC(=O)[C@@H]1[C@H]2CCC[C@H]2CN1C(=O)[C@@H](NC(=O)[C@@H](NC(=O)c1cnccn1)C1CCCCC1)C(C)(C)C)C(=O)C(=O)NC1CC1 | 82000 nM | 54 | 230 | 3 µM·h | 19 µM·h | 350 nM | 40 nM | 2400 nM | 370 nM |
| CCC[C@H](NC(=O)[C@@H]1C[C@@H]2CCCC[C@@H]2N1C(=O)[C@@H](NC(=O)[C@@H](NC(=O)c1ncc[nH]1)C1CCCCC1)C(C)(C)C)C(=O)C(=O)NC1CC1 | > 100000 nM | 0.26 | > 442 | 0.05 µM·h | 0.47 µM·h | 230 nM | 120 nM | 60 nM | 10 nM |
| CCC[C@H](NC(=O)[C@@H]1C[C@@H]2CCCC[C@@H]2N1C(=O)[C@@H](NC(=O)[C@@H](NC(=O)C(=O)NC(C)C)C1CCCCC1)C(C)(C)C)C(=O)C(=O)NC1CC1 | > 100000 nM |  | > 249 |  |  | 400 nM | 160 nM |  |  |
| CCC[C@H](NC(=O)[C@@H]1C[C@@H]2CCCC[C@@H]2N1C(=O)[C@@H](NC(=O)[C@@H](NC(=O)C(=O)NC1CC1)C1CCCCC1)C(C)(C)C)C(=O)C(=O)NC1CC1 | > 100000 nM |  | > 375 |  |  | 270 nM | 110 nM |  |  |
| CCC[C@H](NC(=O)[C@@H]1C[C@@H]2CCCC[C@@H]2N1C(=O)[C@@H](NC(=O)[C@@H](NC(=O)c1cc2cc(F)ccc2[nH]1)C1CCCCC1)C(C)(C)C)C(=O)C(=O)NC1CC1 | > 100000 nM |  | > 203 |  |  | 490 nM | 120 nM |  |  |
| CCC[C@H](NC(=O)[C@@H]1C[C@@H]2CCCC[C@@H]2N1C(=O)[C@@H](NC(=O)[C@@H](NC(=O)c1ccoc1)C1CCCCC1)C(C)(C)C)C(=O)C(=O)NC1CC1 | > 100000 nM |  | > 71 |  |  | 1400 nM | 240 nM |  |  |
| CCC[C@H](NC(=O)[C@@H]1[C@H]2CCC[C@H]2CN1C(=O)[C@@H](NC(=O)[C@@H](NC(=O)c1ncc[nH]1)C1CCCCC1)C(C)(C)C)C(=O)C(=O)NC1CC1 |  | 52 |  | 0.36 µM·h | 10.5 µM·h | 200 nM | 30 nM | 1300 nM | 40 nM |
| CCC[C@H](NC(=O)[C@@H]1C[C@@H]2CCCC[C@@H]2N1C(=O)[C@@H](NC(=O)[C@H](C1CCCCC1)N1C(=O)c2ccccc2C1=O)C(C)(C)C)C(=O)C(=O)NC1CC1 | > 100000 nM |  |  |  |  | > 3000 nM | 370 nM |  |  |
| CCC[C@H](NC(=O)[C@@H]1C[C@@H]2CCCC[C@@H]2N1C(=O)[C@@H](NC(=O)[C@@H](NC(=O)c1nccn1C)C1CCCCC1)C(C)(C)C)C(=O)C(=O)NC1CC1 | > 100000 nM |  |  | 1.3 µM·h | 2.1 µM·h | > 3000 nM | 1200 nM | 260 nM | 170 nM |
| CCC[C@H](NC(=O)[C@@H]1C[C@@H]2CCCC[C@@H]2N1C(=O)[C@@H](NC(=O)[C@@H](NC(=O)C(=O)NCc1ccccc1)C1CCCCC1)C(C)(C)C)C(=O)C(=O)NC1CC1 | > 100000 nM |  | > 380 |  |  | 260 nM | 140 nM |  |  |
